Assay [1] deals with Urokinase-type plasminogen activator (Homo sapiens, UniProt P00749).
Description: Binding affinity towards Urokinase-type plasminogen activator (urokinase)
The target in assay [2] is Prothrombin (Homo sapiens, UniProt P00734). The assay is described as follows: Binding affinity against thrombin.
Assay [3] deals with Tissue-type plasminogen activator (Homo sapiens, UniProt P00750). The assay is described as follows: Binding affinity towards tissue type plasminogen activator.
The target of assay [4] is Plasminogen (Homo sapiens, UniProt P00747). As to the kind of experiment: Binding affinity against plasmin.
The target in assay [5] is Serine protease 1 (Homo sapiens, UniProt P07477). As to the kind of experiment: Binding affinity against trypsin.
A short description of assay [6]: Binding affinity against trypsin.

Bounds are passed on as bounds.

The results in this text go back to ChEMBL document CHEMBL1146777, “Interaction with the S1 beta-pocket of urokinase: 8-heterocycle substituted and 6,8-disubstituted 2-naphthamidine urokinase inhibitors” (Bioorg Med Chem Lett, 2004).

The Ki is a measure of affinity in units of concentration, obtained from inhibition or displacement.

Sequence of Tissue-type plasminogen activator (P00750 whole entry): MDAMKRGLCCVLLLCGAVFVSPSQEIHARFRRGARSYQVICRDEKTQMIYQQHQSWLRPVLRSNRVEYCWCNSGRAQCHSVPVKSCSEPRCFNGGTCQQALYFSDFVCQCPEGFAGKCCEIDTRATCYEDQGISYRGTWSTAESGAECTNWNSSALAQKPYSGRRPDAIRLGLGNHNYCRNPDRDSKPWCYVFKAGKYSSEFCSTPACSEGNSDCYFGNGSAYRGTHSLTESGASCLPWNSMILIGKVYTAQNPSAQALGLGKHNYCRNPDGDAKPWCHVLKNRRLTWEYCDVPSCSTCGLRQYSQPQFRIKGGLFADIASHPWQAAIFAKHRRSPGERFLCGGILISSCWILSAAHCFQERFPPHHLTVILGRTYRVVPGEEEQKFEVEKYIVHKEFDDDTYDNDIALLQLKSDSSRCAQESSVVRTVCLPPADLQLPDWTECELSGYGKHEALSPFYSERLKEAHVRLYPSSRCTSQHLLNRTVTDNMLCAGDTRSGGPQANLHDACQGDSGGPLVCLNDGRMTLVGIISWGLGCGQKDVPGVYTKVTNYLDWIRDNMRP
Sequence of Plasminogen (P00747 97-580 limits assumed): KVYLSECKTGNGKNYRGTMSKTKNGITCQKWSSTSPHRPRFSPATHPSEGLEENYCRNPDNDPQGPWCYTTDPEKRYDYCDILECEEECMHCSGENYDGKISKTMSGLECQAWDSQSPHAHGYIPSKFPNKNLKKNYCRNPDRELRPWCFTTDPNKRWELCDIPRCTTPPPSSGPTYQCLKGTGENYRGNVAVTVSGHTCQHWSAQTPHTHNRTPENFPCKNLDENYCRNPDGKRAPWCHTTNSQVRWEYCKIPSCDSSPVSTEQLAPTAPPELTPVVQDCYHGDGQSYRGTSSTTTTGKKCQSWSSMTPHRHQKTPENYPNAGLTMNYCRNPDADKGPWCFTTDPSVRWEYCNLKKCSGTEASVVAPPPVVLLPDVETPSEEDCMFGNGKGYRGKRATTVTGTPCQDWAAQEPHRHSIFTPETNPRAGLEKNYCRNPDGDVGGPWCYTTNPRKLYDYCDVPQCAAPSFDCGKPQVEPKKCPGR
Sequence of Plasminogen (P00747 581-810 limits assumed): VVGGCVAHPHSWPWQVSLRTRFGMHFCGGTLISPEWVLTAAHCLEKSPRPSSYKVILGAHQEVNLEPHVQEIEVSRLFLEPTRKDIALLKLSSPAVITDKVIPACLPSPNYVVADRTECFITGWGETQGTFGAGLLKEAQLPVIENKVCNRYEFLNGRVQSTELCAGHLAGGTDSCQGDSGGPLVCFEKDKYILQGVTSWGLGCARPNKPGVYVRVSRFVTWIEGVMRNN
Sequence of Serine protease 1 (P07477 whole entry): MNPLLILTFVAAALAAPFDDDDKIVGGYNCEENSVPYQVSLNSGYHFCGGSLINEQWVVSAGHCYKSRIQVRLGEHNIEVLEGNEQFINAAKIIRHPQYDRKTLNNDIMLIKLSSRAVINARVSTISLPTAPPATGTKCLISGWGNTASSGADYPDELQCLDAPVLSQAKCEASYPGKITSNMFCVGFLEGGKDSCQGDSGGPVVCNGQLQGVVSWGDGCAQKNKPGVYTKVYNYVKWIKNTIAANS

Take `COc1ccc2ccc(C(=N)N)cc2c1-c1cnn(C)c1`: affinity in assay [1] was put at a Ki of 4.6 µM.

Regarding `N=C(N)c1ccc2cccc(Nc3ncccn3)c2c1`, the Ki in assay [2] came to 3.2 µM; in assay [3] it was 24 µM; in assay [4], 3.8 µM; in assay [5], 1.7 µM.

As to `N=C(N)c1ccc2cc(C(=O)Nc3ccc(CN)cc3)cc(Nc3ncccn3)c2c1`, the Ki in assay [2] was 0.94 µM; in assay [3], 0.68 µM; in assay [4] it was 0.15 µM; in assay [5], 0.02 µM.

Consider `CCSc1cc(-c2cc(C(=O)Nc3ccccc3)cc3ccc(C(=N)N)cc23)co1`, for which the inhibition constant (Ki) in assay [2] was 0.12 µM; in assay [3] it was 3.3 µM; in assay [1], 0.04 µM; in assay [4], 0.053 µM; in assay [5], 0.011 µM.

As to `[H]/N=C(/N)c1ccc2cc(C(=O)Nc3ccccc3)cc(Nc3ncccn3)c2c1`, the Ki came out at 0.17 µM in assay [2]; 0.81 µM in assay [3]; 0.002 µM in assay [1]; 0.09 µM in assay [4]; 0.04 µM in assay [5].

`COc1ccc2ccc(C(=N)N)cc2c1-c1ccoc1`: the inhibition constant (Ki) was 1.3 µM in assay [2], 18 µM in assay [3], 9.4 µM in assay [4] and 1.2 µM in assay [5].

For the molecule `N=C(N)c1ccc2cc(C(=O)Nc3ccccc3)ccc2c1`, in assay [6], the inhibitory constant (Ki) was determined as 0.33 µM.

`N=C(N)c1ccc2ccccc2c1`: the values for the Ki in assay [3] and in assay [6] were above 100 µM and 7.8 µM, respectively.

Regarding `N=C(N)c1ccc2cc(C(=O)Nc3ccccc3)cc(C3CCOC3)c2c1` (stereo unspecified), the Ki in assay [2] amounted to 0.36 µM; in assay [3], 0.87 µM; in assay [1], 0.106 µM; in assay [4] it was 0.4 µM; in assay [5] it was 0.03 µM.

For the molecule `N=C(N)c1ccc2cc(C(=O)Nc3ccccc3)cc(-c3ccoc3)c2c1`, the inhibition constant Ki in assay [2] came to 0.13 µM; in assay [3] it was 0.18 µM; in assay [1] it was 0.091 µM; in assay [4], 0.32 µM; in assay [5], 0.045 µM.

Regarding `N=C(N)c1ccc2cccc(N)c2c1`, the Ki in assay [2] was 5.2 µM; in assay [3], 27 µM; in assay [4], 6.6 µM; in assay [5], 0.2 µM.

Turning to `CCS(=O)(=O)c1cc(-c2cc(C(=O)Nc3cccc(OC4CCCC4)c3)cc3ccc(C(=N)N)cc23)co1`, the inhibition constant (Ki) turned out to be 0.61 µM in assay [2]; 1.6 µM in assay [3]; 0.0021 µM in assay [1]; 0.038 µM in assay [4]; 0.003 µM in assay [5].

For `COc1ccc2ccc(C(=N)N)cc2c1C1CCOC1` (stereo unspecified), the Ki is 0.45 µM in assay [2], 7.4 µM in assay [3], 6 µM in assay [4] and 0.32 µM in assay [5].

For the molecule `CCS(=O)(=O)c1cc(-c2cc(C(=O)Nc3ccccc3)cc3ccc(C(=N)N)cc23)co1`, the Ki in assay [2] is 0.29 µM; in assay [3], 8.3 µM; in assay [4], 0.056 µM; in assay [5], 0.0035 µM.

As to `COc1ccc2ccc(C(=N)N)cc2c1-c1cnn(S(C)(=O)=O)c1`, the inhibition constant Ki is 7.1 µM in assay [2], above 100 µM in assay [3], 8.5 µM in assay [4] and 2.7 µM in assay [5].

As for `CC(C)Oc1cccc(NC(=O)c2cc(C3CCOC3)c3cc(C(=N)N)ccc3c2)c1` (stereo unspecified), the Ki in assay [2] stood at 1.1 µM; in assay [3] it was 0.13 µM; in assay [4], 0.19 µM; in assay [5], 0.012 µM.
